Tests used:
[1] = tested on: Candida albicans ATCC 1031; experiment: Growth inhibition test (DGHM, Essai 2, Tables A-C), 72 h at 37°C; non/A/B/C = without or with inactivating substances A, B, C; format: cell-based
Description: Un autre essai a été réalisé à partir des solutions suivantes : • 100 ml d'une solution à 0,1 % de digluconate de chlorhexidine (pH 6) et • 100 ml d'une solution à 0,1 % de Bardac 22®. […]
(§1) Les tests ont été réalisés conformément au protocole décrit dans le Chapitre I/2.1 et 2.2 de Richtlinien für die Prüfung und Bewertung chemischer Desinfektionsverfahren der DGHM, Stand 1.1., 1981).
(§2) Les Tableaux A, B et C illustrent respectivement l'activité bactéricide et fongicide d'une solution aqueuse à 0,1 % de digluconate de chlorhexidine, d'une solution aqueuse à 0,1 % de Bardac 22® et d'un mélange à part égale des deux composés. Les protocoles dont ces Tableaux illustrent les résultats comprennent une incubation de 72 heures à 37°C et l'utilisation, comme témoins, des substances inactivantes suivantes : A : Tween® 80 3 % + lécithine 0,3 % + cystéine 0,1 %; B : Tween® 80 3 % + saponine 3 % + cystéine 0,1 % + histidine 0,1 %; C : Tween® 80 3 % + lécithine 0,3 % + histidine 0,1 % + thiosulfate de sodium 0,5 %.
(§3) Dans ces Tableaux, le signe "+" indique une croissance et le signe "-" l'absence de croissance.

[2] = tested on: E. coli ATCC 11229; experiment: as above; format: cell-based, Escherichia coli
Description: (§4) Un autre essai a été réalisé à partir des solutions suivantes : • 100 ml d'une solution à 0,1 % de digluconate de chlorhexidine (pH 6) et • 100 ml d'une solution à 0,1 % de Bardac 22®.
L'activité de ces solutions, seules ou en combinaison a été plus particulièrement testée vis-à-vis de Staphylococcus aureus ATCC 6538, Escherichia coli ATCC 11229 et Candida albicans ATCC 10231.
as §1, §2, §3

[3] = tested on: E. coli ATCC 11229; experiment: Disinfection time test (Essai 2, Tables D-F), reaction at 22°, subcultures 72 h at 37°C; format: cell-based, Escherichia coli
Description: as §4, §1
Les tests dont les résultats sont illustrés aux Tableaux D, E et F ont été réalisés à une température de réaction de 22° avec une incubation des sous-cultures 72 heures à 37°C avec comme substances inactivantes : Tween® 80 3 % + saponine 3 % + cystéine 0,1 % + histidine 0,1 %; ces Tableaux illustrent respectivement l'activité bactéricide et fongicide d'une solution aqueuse à 0,1 % de digluconate de chlorhexidine, d'une solution aqueuse à 0,1 % de Bardac 22® et d'un mélange à part égale des deux composés et montrent l'action des antiseptiques précités, en fonction du temps de contact, et font apparaître la même synergie d'action de l'association que ci-dessus, dans la mesure où l'association des deux composés permet de diminuer significativement leur concentration, pour l'obtention d'un même effet. TABLEAU D

SMILES: CCCCCCCCCC[N+](C)(C)CCCCCCCCCC [Bardac®, chlorure de didécyldiméthylammonium]
- croissance ([1]; Conc. 0,1 % (vol/vol), A): +
- croissance ([1]; Conc. 0,1 % (vol/vol), B): +
- croissance ([1]; Conc. 0,1 % (vol/vol), C): +
- croissance ([1]; Conc. 0,1 % (vol/vol), non): -
- croissance ([1]; Conc. 0,05 % (vol/vol), A): +
- croissance ([1]; Conc. 0,5 % (vol/vol), A): +
- croissance ([1]; Conc. 0,05 % (vol/vol), B): +
- croissance ([1]; Conc. 0,5 % (vol/vol), B): +
- croissance ([1]; Conc. 0,05 % (vol/vol), C): +
- croissance ([1]; Conc. 0,5 % (vol/vol), C): +
- croissance ([1]; Conc. 0,05 % (vol/vol), non): +
- croissance ([1]; Conc. 0,5 % (vol/vol), non): -
- croissance ([1]; Conc. 1,0 % (vol/vol), A): +
- croissance ([1]; Conc. 1,0 % (vol/vol), B): +
- croissance ([1]; Conc. 1,0 % (vol/vol), C): +
- croissance ([1]; Conc. 1,0 % (vol/vol), non): -
- croissance ([1]; Conc. 0,00625 % (vol/vol), A): +
- croissance ([1]; Conc. 0,00625 % (vol/vol), B): +
- croissance ([1]; Conc. 0,00625 % (vol/vol), C): +
- croissance ([1]; Conc. 0,00625 % (vol/vol), non): +
- croissance ([1]; Conc. 0,0125 % (vol/vol), A): +
- croissance ([1]; Conc. 0,0125 % (vol/vol), B): +
- croissance ([1]; Conc. 0,0125 % (vol/vol), C): +
- croissance ([1]; Conc. 0,0125 % (vol/vol), non): +
- croissance ([1]; Conc. 0,025 % (vol/vol), A): +
- croissance ([1]; Conc. 0,025 % (vol/vol), B): +
- croissance ([1]; Conc. 0,025 % (vol/vol), C): +
- croissance ([1]; Conc. 0,025 % (vol/vol), non): +
- concentration en substance active inhibant la croissance ([1]; antiseptique seul): 0,0001%
- croissance ([2]; Conc. 0,1 % (vol/vol), A): +
- croissance ([2]; Conc. 0,1 % (vol/vol), B): +
- croissance ([2]; Conc. 0,1 % (vol/vol), C): +
- croissance ([2]; Conc. 0,1 % (vol/vol), non): +
- croissance ([2]; Conc. 0,05 % (vol/vol), A): +
- croissance ([2]; Conc. 0,5 % (vol/vol), A): +
- croissance ([2]; Conc. 0,05 % (vol/vol), B): +
- croissance ([2]; Conc. 0,5 % (vol/vol), B): +
- croissance ([2]; Conc. 0,05 % (vol/vol), C): +
- croissance ([2]; Conc. 0,5 % (vol/vol), C): +
- croissance ([2]; Conc. 0,05 % (vol/vol), non): +
- croissance ([2]; Conc. 0,5 % (vol/vol), non): -
- croissance ([2]; Conc. 1,0 % (vol/vol), A): +
- croissance ([2]; Conc. 1,0 % (vol/vol), B): +
- croissance ([2]; Conc. 1,0 % (vol/vol), C): +
- croissance ([2]; Conc. 1,0 % (vol/vol), non): -
- croissance ([2]; Conc. 0,00625 % (vol/vol), A): +
- croissance ([2]; Conc. 0,00625 % (vol/vol), B): +
- croissance ([2]; Conc. 0,00625 % (vol/vol), C): +
- croissance ([2]; Conc. 0,00625 % (vol/vol), non): +
- croissance ([2]; Conc. 0,0125 % (vol/vol), A): +
- croissance ([2]; Conc. 0,0125 % (vol/vol), B): +
- croissance ([2]; Conc. 0,0125 % (vol/vol), C): +
- croissance ([2]; Conc. 0,0125 % (vol/vol), non): +
- croissance ([2]; Conc. 0,025 % (vol/vol), A): +
- croissance ([2]; Conc. 0,025 % (vol/vol), B): +
- croissance ([2]; Conc. 0,025 % (vol/vol), C): +
- croissance ([2]; Conc. 0,025 % (vol/vol), non): +
- concentration en substance active inhibant la croissance ([2]; antiseptique seul): 0,0005%
- croissance ([3]; Conc. 0,1 % (vol/vol), 1 min): +
- croissance ([3]; Conc. 0,1 % (vol/vol), 3 min): +
- croissance ([3]; Conc. 0,1 % (vol/vol), 5 min): +
- croissance ([3]; Conc. 0,1 % (vol/vol), 15 min): +
- croissance ([3]; Conc. 0,1 % (vol/vol), 30 min): +
- croissance ([3]; Conc. 0,1 % (vol/vol), 60 min): +
- croissance ([3]; Conc. 0,05 % (vol/vol), 1 min): +
- croissance ([3]; Conc. 0,5 % (vol/vol), 1 min): +
- croissance ([3]; Conc. 0,05 % (vol/vol), 3 min): +
- croissance ([3]; Conc. 0,5 % (vol/vol), 3 min): +
- croissance ([3]; Conc. 0,05 % (vol/vol), 5 min): +
- croissance ([3]; Conc. 0,5 % (vol/vol), 5 min): +
- croissance ([3]; Conc. 0,05 % (vol/vol), 15 min): +
- croissance ([3]; Conc. 0,5 % (vol/vol), 15 min): +
- croissance ([3]; Conc. 0,05 % (vol/vol), 30 min): +
- croissance ([3]; Conc. 0,5 % (vol/vol), 30 min): +
- croissance ([3]; Conc. 0,05 % (vol/vol), 60 min): +
- croissance ([3]; Conc. 0,5 % (vol/vol), 60 min): +
- croissance ([3]; Conc. 1 % (vol/vol), 1 min): +
- croissance ([3]; Conc. 1 % (vol/vol), 3 min): +
- croissance ([3]; Conc. 1 % (vol/vol), 5 min): +
- croissance ([3]; Conc. 1 % (vol/vol), 15 min): +
- croissance ([3]; Conc. 1 % (vol/vol), 30 min): +
- croissance ([3]; Conc. 1 % (vol/vol), 60 min): +
- croissance ([3]; Conc. 5 % (vol/vol), 1 min): +
- croissance ([3]; Conc. 5 % (vol/vol), 3 min): +
- croissance ([3]; Conc. 5 % (vol/vol), 5 min): +
- croissance ([3]; Conc. 5 % (vol/vol), 15 min): -
- croissance ([3]; Conc. 5 % (vol/vol), 30 min): -
- croissance ([3]; Conc. 5 % (vol/vol), 60 min): -
- croissance ([3]; Conc. 10 % (vol/vol), 1 min): +
- croissance ([3]; Conc. 10 % (vol/vol), 3 min): +
- croissance ([3]; Conc. 10 % (vol/vol), 5 min): -
- croissance ([3]; Conc. 10 % (vol/vol), 15 min): -
- croissance ([3]; Conc. 10 % (vol/vol), 30 min): -
- croissance ([3]; Conc. 10 % (vol/vol), 60 min): -
- croissance ([3]; Conc. 25 % (vol/vol), 1 min): -
- croissance ([3]; Conc. 25 % (vol/vol), 3 min): -
- croissance ([3]; Conc. 25 % (vol/vol), 5 min): -
- croissance ([3]; Conc. 25 % (vol/vol), 15 min): -
- croissance ([3]; Conc. 25 % (vol/vol), 30 min): -
- croissance ([3]; Conc. 25 % (vol/vol), 60 min): -

Reference: patent publication EP0555116B1, “Compositions based on antiseptics and their applications” (HUTCHINSON, priority 1992, dated 1993)
